Results from patent publication US20230295212A1 (ROME Therapeutics, Inc., priority 2022, published 2023).
pIC50: −log10 of the molar value. Where a name gives a salt, the structure may show the parent alone.

Legend:
[1] = target: T1, HERV-K reverse transcriptase (Homo sapiens, UniProt V9H0F6); assay: Homogeneous time-resolved fluorescence (HTRF) HERV-K RT assay; type: biochemical; details: triphosphate analogs, HERV-K enzyme 16 ng/well, 25° C. 30 minutes
T1 construct: fused on or other part: C-terminal 8xHis tag
Procedure: Exemplary triphosphate analogs were tested for ability to inhibit HERV-K reverse transcriptase using a homogeneous time-resolved fluorescence (HTRF) assay. Assay procedures and results are described below.
The HERV-K reverse transcriptase homogeneous time-resolved fluorescence (HTRF) assay was performed in a 384-well format with HERV-K reverse transcriptase (2-596)-8His protein. Baculoviruses were created using Bac-to-Bac technology (Invitrogen). pFastflac donor plasmids containing HERV-K reverse transcriptase sequence (NCBI GenBank number AAC63291.1, J. Virology (1999) Vol. 73, No. 3, pp. 2365-2375) were transformed into DH10 Bac cells following the manufacturer's instructions. Recombinant bacmids were then isolated clonally and transfected into SF9 cells with lipofectin. HERV-K reverse transcriptase was expressed in the SF9 insect cells and then purified using immobilized metal affinity chromatography (IMAC) followed by size-exclusion chromatography (SEC).
Test compound was serially diluted in DMSO and further diluted in the assay buffer (50 mM Tris-HCl, 50 mM KCl, 10 mM MgCl2, 10 mM DTT, pH 8.1) to achieve a final DMSO concentration of 1%. The serially diluted compound was mixed with 16 ng/well of HERV-K enzyme, 5 nM of pre-annealed template/biotin-primer pair (synthesized at Geneway Biotechnology), 10 nM of Fluorescein-12-dCTP fluorescent probe (PerkinElmer), and 1 mM dGTP, dATP, and DTTP (ThermoFisher). The template/biotin-primer sequences were:
After incubating at 25° C. for 30 minutes, the detection reagent 20 mM EDTA with streptavidin-terbium cryptate (Cisbio Bioassay) in the PPI buffer (Cisbio Bioassay) was added, and the mixture was incubated at 25° C. for 60 minutes. At the end of the incubation, fluorescence was read at ex/em=337/485 nm and ex/em=337/520 nm on an Envision 2104 plate reader (PerkinElmer). The fluorescence ratio at 520/485 nm was used for the calculation. […] IC50 values were calculated by fitting the compound dose inhibition curve with a 4-parameter non-linear regression equation.

human telomerase = target: T2, human telomerase (Homo sapiens, UniProt O14746); assay: Human telomerase PCR ELISA assay (MCF-7 cell lysate); type: biochemical; details: triphosphates, 0.2 μg MCF-7 lysate
T2 construct: endogenous in cells; host or cells: MCF-7 cell lysate
Procedure: Exemplary compounds were tested for ability to inhibit human telomerase using a PCR ELISA assay. Off-target inhibition of human telomerase can result in undesired cellular toxicity, e.g., triggering replicative senescence and/or apoptotic cell death. Assay procedures and results are described below.
The human telomerase assay was performed with telomerase in the MCF-7 cell lysate using the Telo TAGGG Telomerase PCR ELISA^Plus kit (Roche) per manufacturer's instruction. MCF-7 cells were lysed in the lysis buffer and the supernatant was used for the assay. Test compound was serially diluted in water and mixed with 0.2 μg of MCF-7 lysate in PCR tubes and incubate at room temperature for 15 minutes. The PCR reaction mixture was then added, the tubes were transferred to a thermal cycler (Analytikjena) and the telomerase elongation reaction was performed for 30 minutes followed by 30 PCR cycles with the following protocol:
Mix 2.5 μL of PCR amplification product from above to 10 μl of denature reagent to each well of a PCR plate and incubate at room temperature for 10 minutes. Add in 100 μl of hybridization buffer T and mix well. Transfer 100 μl per well of the reaction mixture to the precoated MP module, incubate at 37° C. for 2 hours. Remove the hybridization solution, wash three times with the wash buffer, add anti-DIG-HRP solution, incubate at room temperature for 30 minutes. Remove the anti-DIG-HRP solution and wash five times with the wash buffer. Add TMB substrate and incubate at room temperature for 10 minutes. Measure the absorbance at 450 nm using Envision (PerkinElmer).

THP1 Dual TREX1 KO cells = assay: THP1 TREX1 KO inhibition assay, combination dosing (stampidine and Compound 2); type: cell-based; details: combination of stampidine and Compound 2; k>0 denotes synergy
Procedure: Exemplary compounds were tested to determine the effect of combined dosing of two compounds on the type 1 interferon response in THP1 Dual TREX1 KO cells treated with 5-aza-2′-deoxycytidine. Assay procedures and results are described below.
THP1 Dual TREX1 KO cells were purchased from InvivoGen. The THP1-Dual™ KO-TREX1 cells were cultured in RPMI 1640, 10% heat-inactivated fetal bovine serum, 25 mM HEPES, 10 μg/mL blasticidin, and 100 μg/mL Zeocin. THP1-Dual™ KO-TREX1 cells were treated with a dose titration of test compound in the presence of 1 μM 5-aza-2′-deoxycytidine (Sigma, cat #189825). Type 1 Interferon and cell viability were assessed after five days of treatment.
Stock solution of test compounds stampidine and Compound 2 were prepared in DMSO followed by a three-fold dilution in DMSO. […]
THP1-Dual™ KO-TREX1 cells were treated with 1 μM 5-aza-2′-deoxycytidine. […] Luminescence was detected on a plate reader according to manufacturer's instructions. […]
The remaining cells were assessed for cell viability by adding 30 μl of CellTiter-Glo (Promega, G9683) solution to each well, and placed on a shaker for 10 minutes at room temperature. Luminescence was detected on a plate reader, according to manufacturer's instructions. […]

T2 sequence (O14746 whole entry): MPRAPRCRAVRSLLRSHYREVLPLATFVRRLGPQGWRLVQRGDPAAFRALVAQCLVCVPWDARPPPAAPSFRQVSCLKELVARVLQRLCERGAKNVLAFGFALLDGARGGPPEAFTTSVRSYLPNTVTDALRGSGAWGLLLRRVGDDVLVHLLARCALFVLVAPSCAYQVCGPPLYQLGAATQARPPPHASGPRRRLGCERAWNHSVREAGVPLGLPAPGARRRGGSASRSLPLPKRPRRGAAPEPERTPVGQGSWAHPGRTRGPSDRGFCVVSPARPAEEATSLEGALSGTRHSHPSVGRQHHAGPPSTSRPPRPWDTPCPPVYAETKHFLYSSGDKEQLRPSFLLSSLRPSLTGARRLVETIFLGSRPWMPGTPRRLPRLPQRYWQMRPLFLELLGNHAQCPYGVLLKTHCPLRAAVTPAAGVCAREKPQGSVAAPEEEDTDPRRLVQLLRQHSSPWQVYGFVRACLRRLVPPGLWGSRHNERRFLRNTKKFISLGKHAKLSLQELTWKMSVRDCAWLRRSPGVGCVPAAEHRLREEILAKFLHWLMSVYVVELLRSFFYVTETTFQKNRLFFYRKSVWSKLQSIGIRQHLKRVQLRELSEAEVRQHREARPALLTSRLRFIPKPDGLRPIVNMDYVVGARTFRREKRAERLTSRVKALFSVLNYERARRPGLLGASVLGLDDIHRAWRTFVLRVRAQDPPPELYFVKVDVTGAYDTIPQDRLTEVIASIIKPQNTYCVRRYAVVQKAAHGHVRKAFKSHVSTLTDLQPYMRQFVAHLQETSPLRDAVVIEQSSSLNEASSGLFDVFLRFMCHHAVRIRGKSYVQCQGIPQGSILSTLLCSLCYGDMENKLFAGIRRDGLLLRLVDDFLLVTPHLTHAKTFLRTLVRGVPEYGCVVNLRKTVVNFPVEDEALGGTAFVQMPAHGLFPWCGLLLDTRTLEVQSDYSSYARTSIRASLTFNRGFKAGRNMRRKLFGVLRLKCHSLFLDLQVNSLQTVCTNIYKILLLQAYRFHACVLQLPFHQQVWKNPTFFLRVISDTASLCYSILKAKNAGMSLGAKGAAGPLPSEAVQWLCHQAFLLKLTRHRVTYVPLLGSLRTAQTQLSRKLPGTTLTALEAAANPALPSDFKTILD
T2 sequence (O60832 whole entry partner): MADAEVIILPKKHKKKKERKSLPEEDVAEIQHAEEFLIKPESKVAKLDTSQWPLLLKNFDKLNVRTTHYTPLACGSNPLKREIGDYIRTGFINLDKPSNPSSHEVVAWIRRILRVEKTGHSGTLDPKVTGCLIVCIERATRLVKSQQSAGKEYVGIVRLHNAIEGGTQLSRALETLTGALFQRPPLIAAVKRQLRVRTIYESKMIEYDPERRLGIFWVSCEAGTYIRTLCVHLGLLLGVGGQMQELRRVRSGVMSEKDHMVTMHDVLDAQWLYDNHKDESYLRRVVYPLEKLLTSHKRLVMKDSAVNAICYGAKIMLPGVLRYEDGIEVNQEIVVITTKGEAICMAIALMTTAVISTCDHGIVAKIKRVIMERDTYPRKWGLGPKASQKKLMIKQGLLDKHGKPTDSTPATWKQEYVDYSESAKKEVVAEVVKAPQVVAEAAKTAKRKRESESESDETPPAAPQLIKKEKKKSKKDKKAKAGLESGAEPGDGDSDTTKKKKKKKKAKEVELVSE
T2 sequence (Q9NX24 whole entry partner): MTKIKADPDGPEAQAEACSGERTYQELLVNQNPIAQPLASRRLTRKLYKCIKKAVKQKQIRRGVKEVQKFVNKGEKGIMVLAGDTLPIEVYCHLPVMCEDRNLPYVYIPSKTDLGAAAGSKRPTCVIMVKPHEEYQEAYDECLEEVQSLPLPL
T2 sequence (Q9NPE3 whole entry partner): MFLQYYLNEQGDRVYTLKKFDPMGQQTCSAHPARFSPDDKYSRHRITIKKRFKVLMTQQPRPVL
T2 sequence (Q9NY12 whole entry partner): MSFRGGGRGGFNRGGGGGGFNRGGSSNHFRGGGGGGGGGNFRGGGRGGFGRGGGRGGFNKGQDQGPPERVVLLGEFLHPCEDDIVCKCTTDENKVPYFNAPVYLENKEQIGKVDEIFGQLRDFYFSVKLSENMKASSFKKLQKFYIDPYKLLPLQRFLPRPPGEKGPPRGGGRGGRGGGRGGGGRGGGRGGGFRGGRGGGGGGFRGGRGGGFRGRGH
T1 sequence (V9H0F6 entry or part of it): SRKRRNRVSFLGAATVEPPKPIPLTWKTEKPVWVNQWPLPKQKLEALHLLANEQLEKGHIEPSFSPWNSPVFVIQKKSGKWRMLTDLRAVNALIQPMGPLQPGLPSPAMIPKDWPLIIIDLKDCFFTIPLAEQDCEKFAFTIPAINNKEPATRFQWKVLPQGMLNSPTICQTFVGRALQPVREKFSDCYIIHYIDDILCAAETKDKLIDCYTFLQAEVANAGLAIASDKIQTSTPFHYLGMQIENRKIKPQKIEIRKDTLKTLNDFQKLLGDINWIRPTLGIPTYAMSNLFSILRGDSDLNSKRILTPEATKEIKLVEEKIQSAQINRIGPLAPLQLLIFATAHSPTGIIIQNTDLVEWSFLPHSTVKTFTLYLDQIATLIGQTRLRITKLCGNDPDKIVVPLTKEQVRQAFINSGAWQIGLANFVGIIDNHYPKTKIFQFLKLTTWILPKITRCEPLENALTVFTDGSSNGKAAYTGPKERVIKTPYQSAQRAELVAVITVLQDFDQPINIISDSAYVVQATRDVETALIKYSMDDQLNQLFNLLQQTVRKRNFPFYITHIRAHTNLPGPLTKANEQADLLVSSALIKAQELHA

Row | pIC50 [1] | pIC50 (human telomerase) | Structure (SMILES) | best BRAID fit k (THP1 Dual TREX1 KO cells)
1 | < 5.00 | 4.30 to 4.60 | CC[C@]1(COP(=O)(O)OP(=O)(O)OP(=O)(O)O)O[C@@H](n2ccc(N)nc2=O)C[C@@H]1O [44-TP] | 
2 |  |  | Nc1ccn([C@H]2C[C@H](O)[C@](CO)(CCl)O2)c(=O)n1 [Compound 2, 4-amino-1-((2R,4S,5R)-5-(chloromethyl)-4-hydroxy-5-(hydroxymethyl)tetrahydrofuran-2-yl)pyrimidin-2(1H)-one] | 2.00 (0.583-3.64)
3 | 4.77 | ≥ 6.00 | Nc1ccn([C@H]2C[C@H](O)[C@@](CCl)(COP(=O)(O)OP(=O)(O)OP(=O)(O)O)O2)c(=O)n1 [Compound 2-TP] | 
4 | < 5.00 | ≥ 6.00 | Nc1nc(=O)n([C@H]2C[C@H](O)[C@@](CCl)(COP(=O)(O)OP(=O)(O)OP(=O)(O)O)O2)cc1F [Compound 14-TP, ((2R,3S,5R)-5-(4-amino-5-fluoro-2-oxopyrimidin-1(2H)-yl)-2-(chloromethyl)-3-hydroxytetrahydrofuran-2-yl)methyl tetrahydrogen triphosphate TEA Salt] | 
5 | 7.89 | < 4.00 | C#C[C@]1(COP(=O)(O)OP(=O)(O)OP(=O)(O)O)O[C@@H](n2ccc(N)nc2=O)[C@@H](F)[C@@H]1O [Compound 35-TP] | 
6 | < 5.00 | < 4.00 | Nc1ccn([C@@H]2O[C@](CCl)(COP(=O)(O)OP(=O)(O)OP(=O)(O)O)[C@@H](O)[C@@H]2F)c(=O)n1 [Compound 40-TP] | 
7 | 5.40 | 4.60 to 6.00 | C=C[C@]1(COP(=O)(O)OP(=O)(O)OP(=O)(O)O)O[C@@H](n2ccc(N)nc2=O)C[C@@H]1O [Compound 43-TP] | 
8 | < 5.00 | < 4.00 | Nc1nc(=O)n([C@@H]2O[C@](CCl)(COP(=O)(O)OP(=O)(O)OP(=O)(O)O)[C@@H](O)[C@@H]2F)cc1F [Compound 67-TP] | 
